ED50 data for three molecules are collected here from patent publication US4220647A, “1,2,3,4-Tetrahydroisoquinolines and the preparation thereof” (Fujisawa Pharmaceutical Co., Ltd., priority 1974, dated 1980).

The ED50 is the midpoint of the dose-response relation.

The assay deals with Intestinal motility in dogs (jejunum). Nature of the assay: Intestinal motility in dogs (inhibition of jejunal motility, balloon method). It is filed as in vivo, dog (mongrel). To be noted: Canis lupus familiaris; mongrel dogs 8 to 16 kg, urethane (1.5 g/kg) and morphine (15 mg/kg) anesthesia; balloon at jejunum, 10 cm H2O; maximum change in motility amplitude; route not given; read-out: 50% inhibition dose (ED50). On the procedure:
Intestinal motility in dogs: Method: Mongrel dogs weighing 8 to 16 kg which were withheld from any food and water for 24 hours were anesthetized with a combination of urethane (1.5 g/kg) and morphine (15 mg/kg). A balloon was placed at the jejunum of the dog, compressed at a pressure of 10 cm. H2 O and connected to a strain gauge. Changes in the motility were principally recorded in terms of the amplitude of the movements, but the number of movements occurring were also taken into account. The maximum change in all the determinations served as the basis for calculations of the 50% inhibition dose (ED50).
Regarding `Oc1cc2c(cc1O)C(CNc1ccc(F)cc1)NCC2` (stereo not drawn) [Compound No. 1, 1-(p-Fluoroanilinomethyl)-6,7-dihydroxy-1,2,3,4-tetrahydroisoquinoline d-camphor-10-sulfonate], the ED50 amounted to 3 µg/kg.

As to `Cl.Oc1cc2c(cc1O)C(CNc1ccc(Cl)cc1)NCC2` (stereo not drawn) [Compound No. 2, 1-(p-Chloroanilinomethyl)-6,7-dihydroxy-1,2,3,4-tetrahydroisoquinoline hydrochloride], the ED50 was found to be 1.5 µg/kg.

As for `Cl.Cl.Oc1ccc(NCC2NCCc3cc(O)c(O)cc32)cc1` (stereo not drawn) [Compound No. 3, 1-(p-Hydroxyanilinomethyl)-6,7-dihydroxy-1,2,3,4-tetrahydroisoquinoline dihydrochloride], the ED50 was found to be 4 µg/kg.
